The source made the active and inactive calls. The calls are words filed in the database; no cut-off is given here.
How the values were obtained:
Genome polyprotein [1] = target: T1, Genome polyprotein (dengue virus type 2, UniProt P29990); experiment: Inhibition of DENV2 NS2B-NS3 protease
dengue virus type 2 [2] = experiment: Antiviral activity against Dengue virus 2 measured at 48 hrs post-infection; assay type: functional, organism-based; settings: Dengue virus, 48 h; read-out: EC50
dengue virus type 2 [3] = experiment: Antiviral activity against DENV2 infected in human Huh-7 cells assessed as log reduction in intracellular viral RNA synthesis at 10 uM treated at 6 hrs post-viral infection and measured after 12 hrs by real time RT-PCR method; assay type: functional
dengue virus type 2 [4] = experiment: Antiviral activity against DENV2 infected in human Huh-7 cells assessed as viral infection rate at 10 uM treated at 6 hrs post-viral infection and measured at 30 hrs post-infection by confocal microscopy (reference value: 50 to 60%); assay type: functional; settings: time 24 hrs
dengue virus type 2 [5] = experiment: Antiviral activity against DENV2 infected in human Huh-7 cells assessed as log reduction in extracellular viral RNA synthesis at 10 uM treated at 6 hrs post-viral infection and measured after 48 hrs by real time RT-PCR method; assay type: functional
dengue virus type 2 [6] = experiment: Antiviral activity against DENV2 infected in human Huh-7 cells assessed as log reduction in intracellular viral RNA synthesis at 10 uM treated at 6 hrs post-viral infection and measured after 38 hrs by real time RT-PCR method; assay type: functional
[7] = target: Genome polyprotein (dengue virus type 2) (UniProt P29990); experiment: Inhibition of NS2B-NS3 protease in DENV2 infected in human Huh-7 cells assessed as inhibition of NS3 internal cleavage site at 10 uM treated 6 hrs […] viral infection and measured at 30 hrs post-infection by western blot analysis; assay type: cell-based; settings: time 24.0 hrs
dengue virus type 2 [8] = experiment: Antiviral activity against DENV2 infected in human Huh-7 cells assessed as reduction in intracellular viral RNA synthesis at 10 uM treated at 6 hrs post-viral infection and measured after 48 hrs by real time RT-PCR method; assay type: functional, organism-based
Genome polyprotein [9] = target: T1, Genome polyprotein; experiment: Inhibition of DENV2 NS2B-NS3 protease assessed as inhibition of protease intermolecular processing
[10] = Cytotoxicity against monkey LLC-MK2 cells assessed as reduction in cell viability by MTT assay; assay type: cell-based, Macaca mulatta; settings: rhesus monkey
Zika virus = experiment: Antiviral activity against Zika virus; assay type: functional, organism-based
[11] = target: Genome polyprotein (dengue virus type 2) (UniProt P29990); experiment: Inhibition of DENV2 NS2B-NS3 protease up to 200 uM; settings: dose microM <=200

| SMILES | EC50 (dengue virus type 2 [2]) | also measured |
| --- | --- | --- |
| COc1cccc(Cn2c3ccc(-c4cccc(-c5noc(=O)[nH]5)c4)cc3c3cc(-c4cccc(-c5noc(=O)[nH]5)c4)ccc32)c1 | 14.5 µM | IC50 (Genome polyprotein [1]; read-out: IC50): 121 µM |
| N/C(=N\O)c1cccc(-c2ccc3c(c2)c2cc(-c4cccc(/C(N)=N/O)c4)ccc2n3Cc2ccc(Br)c(F)c2)c1 | 1.4 µM |  |
| COc1cccc(S(=O)(=O)n2c3ccc(-c4cccc(C(=N)N)c4)cc3c3cc(-c4cccc(C(=N)N)c4)ccc32)c1 | 26.2 µM | IC50 (Genome polyprotein [1]; read-out: IC50): 4.5 µM |
| COc1ccc(S(=O)(=O)n2c3ccc(-c4cccc(C(=N)N)c4)cc3c3cc(-c4cccc(C(=N)N)c4)ccc32)cc1 | 9.5 µM | IC50 (Genome polyprotein [1]; read-out: IC50): 6.6 µM |
| COc1cccc(S(=O)(=O)n2c3ccc(-c4cccc(/C(N)=N/O)c4)cc3c3cc(-c4cccc(/C(N)=N/O)c4)ccc32)c1 | 8.7 µM | log(activity) (dengue virus type 2 [3]): 1; Activity (dengue virus type 2 [4]): 30%; log(activity) (dengue virus type 2 [5]): 2; Activity (dengue virus type 2 [6]): inactive; inhibition [7]: Active; IC50 (Genome polyprotein [1]): Not Active; Activity (dengue virus type 2 [8]): inactive |
| N/C(=N\O)c1cccc(-c2ccc3c(c2)c2cc(-c4cccc(/C(N)=N/O)c4)ccc2n3Cc2ccc3c(c2)OCO3)c1 | 5 µM |  |
| N/C(=N\O)c1cccc(-c2ccc3c(c2)c2cc(-c4cccc(/C(N)=N/O)c4)ccc2n3Cc2cc(F)cc(Br)c2)c1 | 1.5 µM |  |
| N=C(N)c1cccc(-c2ccc3c(c2)c2cc(-c4cccc(C(=N)N)c4)ccc2n3S(=O)(=O)c2cccc(C(F)(F)F)c2)c1 | 7.3 µM | IC50 (Genome polyprotein [1]; read-out: IC50): 2.9 µM |
| O=C1c2c(O)ccc([N+](=O)[O-])c2C(=O)c2c([N+](=O)[O-])ccc(O)c21 |  | IC50 (Genome polyprotein [9]): 432 µM; CC50 [10]: 69.4 µM |
| COc1ccc(S(=O)(=O)n2c3ccc(-c4cccc(/C(N)=N/O)c4)cc3c3cc(-c4cccc(/C(N)=N/O)c4)ccc32)cc1C | 3.1 µM |  |
| N=C(N)c1cccc(-c2ccc3c(c2)c2cc(-c4cccc(C(=N)N)c4)ccc2n3S(=O)(=O)c2ccccc2Br)c1 | 6.9 µM | IC50 (Genome polyprotein [1]; read-out: IC50): 8.8 µM |
| N/C(=N\O)c1cccc(-c2ccc3c(c2)c2cc(-c4cccc(/C(N)=N/O)c4)ccc2n3S(=O)(=O)c2cccc(Cl)c2)c1 | 7.6 µM |  |
| COc1ccc(S(=O)(=O)n2c3ccc(-c4cccc(/C(N)=N/O)c4)cc3c3cc(-c4cccc(/C(N)=N/O)c4)ccc32)c(OC)c1 | 1.8 µM |  |
| COc1ccc(S(=O)(=O)n2c3ccc(-c4cccc(/C(N)=N/O)c4)cc3c3cc(-c4cccc(/C(N)=N/O)c4)ccc32)cc1 | 9.6 µM | IC50 (Genome polyprotein [1]): Not Active |
| COc1ccc(Cn2c3ccc(-c4cccc(/C(N)=N/O)c4)cc3c3cc(-c4cccc(/C(N)=N/O)c4)ccc32)cc1F | 6.9 µM |  |
| COc1cccc(Cn2c3ccc(-c4cccc(/C(N)=N/O)c4)cc3c3cc(-c4cccc(/C(N)=N/O)c4)ccc32)c1 | 1.8 µM | EC50 (Zika virus): 8.7 µM; inhibition [11]: inactive |
| COc1ccc(Br)cc1S(=O)(=O)n1c2ccc(-c3cccc(/C(N)=N/O)c3)cc2c2cc(-c3cccc(/C(N)=N/O)c3)ccc21 | 4.9 µM |  |
| N/C(=N\O)c1cccc(-c2ccc3c(c2)c2cc(-c4cccc(/C(N)=N/O)c4)ccc2n3S(=O)(=O)c2cccc(F)c2)c1 | 3.1 µM |  |
| COc1ccc(OC)c(S(=O)(=O)n2c3ccc(-c4cccc(/C(N)=N/O)c4)cc3c3cc(-c4cccc(/C(N)=N/O)c4)ccc32)c1 | 5.1 µM |  |
| N/C(=N\O)c1cccc(-c2ccc3c(c2)c2cc(-c4cccc(/C(N)=N/O)c4)ccc2n3S(=O)(=O)c2cccc(C(F)(F)F)c2)c1 | 5 µM | IC50 (Genome polyprotein [1]): Not Active |
| N/C(=N\O)c1cccc(-c2ccc3c(c2)c2cc(-c4cccc(/C(N)=N/O)c4)ccc2n3S(=O)(=O)c2ccc(Br)c(F)c2)c1 | 7.8 µM |  |
| N/C(=N\O)c1cccc(-c2ccc3c(c2)c2cc(-c4cccc(/C(N)=N/O)c4)ccc2n3S(=O)(=O)c2cccc(OC(F)(F)F)c2)c1 | 7.7 µM | IC50 (Genome polyprotein [1]): Not Active |
| N/C(=N\O)c1cccc(-c2ccc3c(c2)c2cc(-c4cccc(/C(N)=N/O)c4)ccc2n3CCCCOc2ccc3ccc(=O)[nH]c3c2)c1 | 8.9 µM |  |
| N/C(=N\O)c1cccc(-c2ccc3c(c2)c2cc(-c4cccc(/C(N)=N/O)c4)ccc2n3S(=O)(=O)c2cc(F)cc(Br)c2)c1 | 17.3 µM |  |
